Measured values from publication PMC12399242 (Acta Pharmaceutica Sinica. B, 2025).

Experiments:
[1] = tested on: HIV-1 (IIIB); experiment: microbe, parasite or virus in culture; assay type: cell-based; conditions: for EC50: Human immunodeficiency virus 1, IIIB, MT4, WT HIV-1, protection of MT-4 cells against HIV-induced cytopathogenicity, mean ± SD, n ≥ 3; for SI (IIIB): selectivity index, ratio CC50/EC50
Excerpt: (§1) Inspired by our previous research on heteroaromatic-biphenyl-DAPYs[15], the 4-cyanophenyl group on the biphenyl moiety was replaced with a privileged 4-pyridyl group for further evaluation.

[2] = in vitro; conditions: human, CC50
Excerpt: as §1

N#Cc1ccc(Nc2ncc(F)c(Oc3ccc(-c4ccncc4)cc3Cl)n2)cc1 [A14, 4-((4-(2-Chloro-4-(pyridin-4-yl)phenoxy)-5-fluoropyrimidin-2-yl)amino)benzonitrile]
EC50 [1]: 12 ± 3.1 nM
SI (IIIB) [1]: >3846
CC50 [2]: > 48 µM

N#Cc1ccc(Nc2ncc(F)c(Nc3ccc(-c4ccc(C#N)cc4)cc3Cl)n2)cc1 [A8, 3′-Chloro-4′-((2-((4-cyanophenyl)amino)-5-fluoropyrimidin-4-yl)amino)-[1,1′-biphenyl]-4-carbonitrile]
EC50 [1]: 43 ± 23 nM
SI (IIIB) [1]: >1038
CC50 [2]: > 45 µM

Cc1cc(-c2ccncc2)ccc1Nc1nc(Nc2ccc(C#N)cc2)ncc1Cl [B19, 4-((5-Chloro-4-((2-methyl-4-(pyridin-4-yl)phenyl)amino)pyrimidin-2-yl)amino)benzonitrile]
EC50 [1]: 44 ± 9.7 nM
SI (IIIB) [1]: >1122
CC50 [2]: > 48 µM

Cc1cc(-c2ccc(C#N)cc2)cc(C)c1Oc1nc(Nc2ccc(C#N)cc2)ncc1Cl [B5, 4′-((5-Chloro-2-((4-cyanophenyl)amino)pyrimidin-4-yl)oxy)-3′,5′-dimethyl-[1,1′-biphenyl]-4-carbonitrile]
EC50 [1]: 11 ± 4.2 nM
SI (IIIB) [1]: 3478
CC50 [2]: 39 ± 9.1 µM

N#Cc1ccc(Nc2ncc(Cl)c(Nc3ccc(-c4ccncc4)cc3F)n2)cc1 [B17, 4-((5-Chloro-4-((2-fluoro-4-(pyridin-4-yl)phenyl)amino)pyrimidin-2-yl)amino)benzonitrile]
EC50 [1]: 142 ± 14 nM
SI (IIIB) [1]: >342
CC50 [2]: > 48 µM

COc1cc(-c2ccc(C#N)cc2)ccc1Oc1nc(Nc2ccc(C#N)cc2)ncc1Cl [B4, 4′-((5-Chloro-2-((4-cyanophenyl)amino)pyrimidin-4-yl)oxy)-3′-methoxy-[1,1′-biphenyl]-4-carbonitrile]
EC50 [1]: 26 ± 13 nM
SI (IIIB) [1]: 412
CC50 [2]: 11 ± 3.7 µM

N#Cc1ccc(Nc2ncc(F)c(Nc3c(F)cc(-c4ccncc4)cc3F)n2)cc1 [A23, 4-((4-((2,6-Difluoro-4-(pyridin-4-yl)phenyl)amino)-5-fluoropyrimidin-2-yl)amino)benzonitrile]
EC50 [1]: 7.6 ± 1.2 nM
CC50 [2]: 21 ± 18 µM

COc1cc(-c2ccncc2)ccc1Nc1nc(Nc2ccc(C#N)cc2)ncc1Cl [B20, 4-((5-Chloro-4-((2-methoxy-4-(pyridin-4-yl)phenyl)amino)pyrimidin-2-yl)amino)benzonitrile]
EC50 [1]: 536 ± 326 nM
SI (IIIB) [1]: 306
CC50 [2]: 164 ± 51 µM

COc1cc(-c2ccncc2)ccc1Oc1nc(Nc2ccc(C#N)cc2)ncc1Cl [B15, 4-((5-Chloro-4-(2-methoxy-4-(pyridin-4-yl)phenoxy)pyrimidin-2-yl)amino)benzonitrile]
EC50 [1]: 6.7 ± 2.3 nM
SI (IIIB) [1]: >6897
CC50 [2]: > 47 µM

N#Cc1ccc(Nc2ncc(Cl)c(Oc3ccc(-c4ccncc4)cc3F)n2)cc1 [B12, 4-((5-Chloro-4-(2-fluoro-4-(pyridin-4-yl)phenoxy)pyrimidin-2-yl)amino)benzonitrile]
EC50 [1]: 7.7 ± 1.9 nM
SI (IIIB) [1]: >6173
CC50 [2]: > 48 µM

COc1cc(-c2ccc(C#N)cc2)ccc1Nc1nc(Nc2ccc(C#N)cc2)ncc1Cl [B9, 4′-((5-Chloro-2-((4-cyanophenyl)amino)pyrimidin-4-yl)amino)-3′-methoxy-[1,1′-biphenyl]-4-carbonitrile]
EC50 [1]: 104 ± 68 nM
SI (IIIB) [1]: 2261
CC50 [2]: 236 ± 24 µM

Cc1cc(-c2ccc(C#N)cc2)cc(C)c1Oc1nc(Nc2ccc(C#N)cc2)ncc1F [A6, 4′-((2-((4-Cyanophenyl)amino)-5-fluoropyrimidin-4-yl)oxy)-3′,5′-dimethyl-[1,1′-biphenyl]-4-carbonitrile]
EC50 [1]: 7.1 ± 3.2 nM
SI (IIIB) [1]: 30,805
CC50 [2]: 219 ± 12 µM

N#Cc1ccc(Nc2ncc(F)c(Oc3ccc(-c4ccc(C#N)cc4)cc3Cl)n2)cc1 [A2, 3′-Chloro-4′-((2-((4-cyanophenyl)amino)-5-fluoropyrimidin-4-yl)oxy)-[1,1′-biphenyl]-4-carbonitrile]
EC50 [1]: 27 ± 25 nM
SI (IIIB) [1]: >1670
CC50 [2]: > 45 µM

Cc1cc(-c2ccncc2)ccc1Oc1nc(Nc2ccc(C#N)cc2)ncc1Cl [B14, 4-((5-Chloro-4-(2-methyl-4-(pyridin-4-yl)phenoxy)pyrimidin-2-yl)amino)benzonitrile]
EC50 [1]: 48 ± 22 nM
SI (IIIB) [1]: >1005
CC50 [2]: > 48 µM

N#Cc1ccc(Nc2ncc(Cl)c(Nc3ccc(-c4ccc(C#N)cc4)cc3F)n2)cc1 [B6, 4′-((5-Chloro-2-((4-cyanophenyl)amino)pyrimidin-4-yl)amino)-3′-fluoro-[1,1′-biphenyl]-4-carbonitrile]
EC50 [1]: 12 ± 2.7 nM
SI (IIIB) [1]: >3911
CC50 [2]: > 45 µM

N#Cc1ccc(Nc2ncc(Cl)c(Nc3ccc(-c4ccncc4)cc3Cl)n2)cc1 [B18, 4-((5-Chloro-4-((2-chloro-4-(pyridin-4-yl)phenyl)amino)pyrimidin-2-yl)amino)benzonitrile]
EC50 [1]: 83 ± 69 nM
SI (IIIB) [1]: >563
CC50 [2]: > 46 µM

N#Cc1ccc(Nc2ncc(F)c(Nc3ccc(-c4ccncc4)cc3Cl)n2)cc1 [A20, 4-((4-((2-Chloro-4-(pyridin-4-yl)phenyl)amino)-5-fluoropyrimidin-2-yl)amino)benzonitrile]
EC50 [1]: 10 ± 1.7 nM
SI (IIIB) [1]: >4819
CC50 [2]: > 48 µM

N#Cc1ccc(Nc2ncc(F)c(Oc3c(F)cc(-c4ccncc4)cc3F)n2)cc1 [A17, 4-((4-(2,6-Difluoro-4-(pyridin-4-yl)phenoxy)-5-fluoropyrimidin-2 yl)amino)benzonitrile]
EC50 [1]: 11 ± 4.1 nM
SI (IIIB) [1]: >4396
CC50 [2]: > 48 µM

N#Cc1ccc(Nc2ncc(F)c(Nc3ccc(-c4ccncc4)cc3F)n2)cc1 [A19, 4-((5-Fluoro-4-((2-fluoro-4-(pyridin-4-yl)phenyl)amino)pyrimidin-2-yl)amino)benzonitrile]
EC50 [1]: 18 ± 14 nM
SI (IIIB) [1]: >2765
CC50 [2]: > 50 µM

N#Cc1ccc(Nc2ncc(Cl)c(Nc3ccc(-c4ccc(C#N)cc4)cc3Cl)n2)cc1 [B7, 3′-Chloro-4′-((5-chloro-2-((4-cyanophenyl)amino)pyrimidin-4-yl)amino)-[1,1′-biphenyl]-4-carbonitrile]
EC50 [1]: 46 ± 13 nM
SI (IIIB) [1]: >6026
CC50 [2]: > 273 µM

Cc1cc(-c2ccncc2)cc(C)c1Oc1nc(Nc2ccc(C#N)cc2)ncc1F [A18, 4-((4-(2,6-Dimethyl-4-(pyridin-4-yl)phenoxy)-5-fluoropyrimidin-2-yl)amino)benzonitrile]
EC50 [1]: 56 ± 44 nM
SI (IIIB) [1]: >868
CC50 [2]: > 49 µM

N#Cc1ccc(Nc2ncc(Cl)c(Oc3ccc(-c4ccc(C#N)cc4)cc3F)n2)cc1 [B1, 4′-((5-Chloro-2-((4-cyanophenyl)amino)pyrimidin-4-yl)oxy)-3′-fluoro-[1,1′-biphenyl]-4-carbonitrile]
EC50 [1]: 8.4 ± 3.4 nM
SI (IIIB) [1]: 4572
CC50 [2]: 39 ± 12 µM

COc1cc(-c2ccc(C#N)cc2)ccc1Nc1nc(Nc2ccc(C#N)cc2)ncc1F [A10, 4′-((2-((4-Cyanophenyl)amino)-5-fluoropyrimidin-4-yl)amino)-3′-methoxy-[1,1′-biphenyl]-4-carbonitrile]
EC50 [1]: 23 ± 18 nM
SI (IIIB) [1]: >1961
CC50 [2]: > 46 µM

N#Cc1ccc(Nc2ncc(Cl)c(Nc3c(F)cc(-c4ccncc4)cc3F)n2)cc1 [B21, 4-((5-Chloro-4-((2,6-difluoro-4-(pyridin-4-yl)phenyl)amino)pyrimidin-2-yl)amino)benzonitrile]
EC50 [1]: 2 ± 0.7 nM
SI (IIIB) [1]: 680
CC50 [2]: 1.3 ± 0.3 µM

Cc1cc(-c2ccc(C#N)cc2)ccc1Oc1nc(Nc2ccc(C#N)cc2)ncc1F [A3, 4′-((2-((4-Cyanophenyl)amino)-5-fluoropyrimidin-4-yl)oxy)-3′-methyl-[1,1′-biphenyl]-4-carbonitrile]
EC50 [1]: 7.6 ± 2.6 nM
SI (IIIB) [1]: >6349
CC50 [2]: > 48 µM

Cc1cc(-c2ccncc2)cc(C)c1Nc1nc(Nc2ccc(C#N)cc2)ncc1Cl [B22, 4-((5-Chloro-4-((2,6-dimethyl-4-(pyridin-4-yl)phenyl)amino)pyrimidin-2-yl)amino)benzonitrile]
EC50 [1]: 8.9 ± 0.7 nM
SI (IIIB) [1]: 29,634
CC50 [2]: 260 ± 6.5 µM

Cc1cc(-c2ccncc2)ccc1Oc1nc(Nc2ccc(C#N)cc2)ncc1F [A15, 4-((5-Fluoro-4-(2-methyl-4-(pyridin-4-yl)phenoxy)pyrimidin-2-yl)amino)benzonitrile]
EC50 [1]: 11 ± 2.5 nM
SI (IIIB) [1]: >4734
CC50 [2]: > 50 µM

Cc1cc(-c2ccncc2)cc(C)c1Oc1nc(Nc2ccc(C#N)cc2)ncc1Cl [B16, 4-((5-Chloro-4-(2,6-dimethyl-4-(pyridin-4-yl)phenoxy)pyrimidin-2-yl)amino)benzonitrile]
EC50 [1]: 105 ± 51 nM
SI (IIIB) [1]: 2327
CC50 [2]: 243 ± 62 µM

Cc1cc(-c2ccncc2)ccc1Nc1nc(Nc2ccc(C#N)cc2)ncc1F [A21, 4-((5-Fluoro-4-((2-methyl-4-(pyridin-4-yl)phenyl)amino)pyrimidin-2-yl)amino)benzonitrile]
EC50 [1]: 6.1 ± 1.3 nM
SI (IIIB) [1]: >8421
CC50 [2]: > 51 µM

COc1cc(-c2ccncc2)ccc1Nc1nc(Nc2ccc(C#N)cc2)ncc1F [A22, 4-((5-Fluoro-4-((2-methoxy-4-(pyridin-4-yl)phenyl)amino)pyrimidin-2-yl)amino)benzonitrile]
EC50 [1]: 8 ± 2.7 nM
SI (IIIB) [1]: >6154
CC50 [2]: > 49 µM

N#Cc1ccc(Nc2ncc(Cl)c(Oc3ccc(-c4ccncc4)cc3Cl)n2)cc1 [B13, 4-((5-Chloro-4-(2-chloro-4-(pyridin-4-yl)phenoxy)pyrimidin-2-yl)amino)benzonitrile]
EC50 [1]: 6.2 ± 1.6 nM
SI (IIIB) [1]: >7477
CC50 [2]: > 46 µM

N#Cc1ccc(Nc2ncc(Cl)c(Oc3ccc(-c4ccc(C#N)cc4)cc3Cl)n2)cc1 [B2, 3′-Chloro-4′-((5-chloro-2-((4-cyanophenyl)amino)pyrimidin-4-yl)oxy)-[1,1′-biphenyl]-4-carbonitrile]
EC50 [1]: 8.7 ± 2 nM
SI (IIIB) [1]: 3949
CC50 [2]: 35 ± 7.3 µM
